Measurements: ChEMBL document CHEMBL1201862, “PubChem BioAssay data set” (2004)
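These data come from cells grown in 96-well plates and exposed to compound for 48 hours at five concentrations. Abbreviation: GI50, concentration required for 50% inhibition of growth.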 Activity calls are given as the source filed them. No stated cut-off is given here; in the data, active = GI50 up to about 1.1 µM and inactive = higher.

Columns and labels:
Test in all cases: NCI-60 cell line screen, 48 h
HOP-62 = tested on: HOP-62
SF-268 = tested on: SF-268
SNB-19 = tested on: SNB-19
HOP-92 = tested on: HOP-92
A549 = tested on: A549
NCI-H23 = tested on: NCI-H23
SF-295 = tested on: SF-295
DU-145 = tested on: DU-145
HT-29 = tested on: HT-29
MDA-MB-435 = tested on: MDA-MB-435
T47D = tested on: T47D
U-251 = tested on: U-251
OVCAR-8 = tested on: OVCAR-8
A498 = tested on: A498
OVCAR-5 = tested on: OVCAR-5
HL-60 = tested on: HL-60
SW-620 = tested on: SW-620
MOLT-4 = tested on: MOLT-4
Malme-3M = tested on: Malme-3M
MCF7 = tested on: MCF7

Compound	GI50 (HOP-62)	GI50 (SF-268)	GI50 (SNB-19)	GI50 (HOP-92)	GI50 (A549)	GI50 (NCI-H23)	GI50 (SF-295)	GI50 (DU-145)	GI50 (HT-29)	GI50 (MDA-MB-435)	GI50 (T47D)	GI50 (U-251)	GI50 (OVCAR-8)	GI50 (A498)	GI50 (OVCAR-5)	GI50 (HL-60)	GI50 (SW-620)	GI50 (MOLT-4)	GI50 (Malme-3M)	GI50 (MCF7)
O=C1Nc2ccccc2C1=Nc1ccc(S(=O)(=O)Nc2nccs2)cc1	> 100 µM (inactive)	> 100 µM (inactive)	> 100 µM (inactive)	> 100 µM (inactive)	> 100 µM (inactive)	> 100 µM (inactive)	> 100 µM (inactive)	> 100 µM (inactive)	> 100 µM (inactive)	92.5 µM (inactive)	> 100 µM (inactive)	> 100 µM (inactive)	> 100 µM (inactive)	> 100 µM (inactive)	> 100 µM (inactive)	> 100 µM (inactive)	> 100 µM (inactive)	> 100 µM (inactive)	> 100 µM (inactive)	> 100 µM (inactive)
COC(=O)C1(C)CCCC2(C)c3cc(OC)ccc3C(=O)C(Br)C12 (stereo not given)	> 10 µM (inactive)	> 10 µM (inactive)	> 10 µM (inactive)	> 10 µM (inactive)	> 10 µM (inactive)	> 10 µM (inactive)	> 10 µM (inactive)	> 10 µM (inactive)	4.75 µM (inactive)	4.19 µM (inactive)	> 10 µM (inactive)	> 10 µM (inactive)	1.99 µM (inactive)	> 10 µM (inactive)	8.02 µM (inactive)	2.14 µM (inactive)	2.15 µM (inactive)	1.75 µM (inactive)	2.72 µM (inactive)	1.95 µM (inactive)
O=C(O)C(F)(OC(F)(F)C(F)(OC(F)(F)C(F)(F)C(F)(F)F)C(F)(F)F)C(F)(F)F (stereo not given)	> 100 µM (inactive)	> 100 µM (inactive)	> 100 µM (inactive)	63.7 µM (inactive)	> 100 µM (inactive)	> 100 µM (inactive)	> 100 µM (inactive)	> 100 µM (inactive)	> 100 µM (inactive)	> 100 µM (inactive)	> 100 µM (inactive)	> 100 µM (inactive)	> 100 µM (inactive)	> 100 µM (inactive)	> 100 µM (inactive)	> 100 µM (inactive)	> 100 µM (inactive)	> 100 µM (inactive)	> 100 µM (inactive)	> 100 µM (inactive)
Cc1cc(S(=O)(=O)Nc2nc(Nc3ccc(Cl)cc3)n[nH]2)c(S)cc1Cl	52.5 µM (inactive)	75.5 µM (inactive)	80.9 µM (inactive)	> 100 µM (inactive)	> 100 µM (inactive)	82.8 µM (inactive)	91.2 µM (inactive)	> 100 µM (inactive)	81.1 µM (inactive)	> 100 µM (inactive)	> 100 µM (inactive)	27.9 µM (inactive)	> 100 µM (inactive)	> 100 µM (inactive)	> 100 µM (inactive)	> 100 µM (inactive)	> 100 µM (inactive)	> 100 µM (inactive)	> 100 µM (inactive)	> 100 µM (inactive)
N=C(N)NS(=O)(=O)c1ccc(NCc2cccc3c(=O)c4ccc(Cl)cc4oc23)cc1	> 10.2 µM (inactive)	4.33 µM (inactive)	5.97 µM (inactive)	3.86 µM (inactive)	> 6.75 µM (inactive)	8.55 µM (inactive)	> 9.35 µM (inactive)	5.57 µM (inactive)	5.71 µM (inactive)	5.04 µM (inactive)	> 6.18 µM (inactive)	5.22 µM (inactive)	7.52 µM (inactive)	> 9.02 µM (inactive)	> 10.1 µM (inactive)	1.38 µM (inactive)	5.41 µM (inactive)	3.57 µM (inactive)	4.59 µM (inactive)	7.45 µM (inactive)
COc1cc(C[S+]([O-])c2ccc(O)cc2)cc(OC)c1OC (stereo not given)	> 100 µM (inactive)	> 100 µM (inactive)	> 100 µM (inactive)	> 100 µM (inactive)	> 100 µM (inactive)	> 100 µM (inactive)	> 100 µM (inactive)	> 100 µM (inactive)	> 100 µM (inactive)	> 100 µM (inactive)	> 100 µM (inactive)	> 100 µM (inactive)	> 100 µM (inactive)	> 100 µM (inactive)	> 100 µM (inactive)	> 100 µM (inactive)	> 100 µM (inactive)	> 100 µM (inactive)	> 100 µM (inactive)	> 100 µM (inactive)
COC(=O)Cc1c2n(c3ccccc13)C(=O)N1c3ccccc3C(CC(=O)OC)C21 (stereo not given)	17.4 µM (inactive)	39.5 µM (inactive)	18.1 µM (inactive)	9.73 µM (inactive)	34.2 µM (inactive)	15.7 µM (inactive)	18.8 µM (inactive)	> 100 µM (inactive)	> 100 µM (inactive)	> 100 µM (inactive)	76 µM (inactive)	28.3 µM (inactive)	31.8 µM (inactive)	39.9 µM (inactive)	32.9 µM (inactive)	3.89 µM (inactive)	> 100 µM (inactive)	> 100 µM (inactive)	81.3 µM (inactive)	59.3 µM (inactive)
COc1cc([C@@H]2c3[nH]c4ccccc4c3C(Nc3ccc([N+](=O)[O-])cc3)[C@H]3COC(=O)N23)cc(OC)c1O (stereo not given in full)	0.0873 µM (active)	0.299 µM (active)	0.127 µM (active)	0.229 µM (active)	0.0531 µM (active)	0.111 µM (active)	0.125 µM (active)	0.321 µM (active)	0.228 µM (active)	0.505 µM (active)	0.466 µM (active)	0.147 µM (active)	0.285 µM (active)	0.14 µM (active)	0.369 µM (active)	< 0.01 µM (active)	0.248 µM (active)	0.014 µM (active)	0.161 µM (active)	0.0361 µM (active)
O=[N+]([O-])c1c(F)c(F)c2c(c1F)N(CCCCCl)c1ccccc1S2	14.3 µM (inactive)	6.04 µM (inactive)	7.69 µM (inactive)	16.4 µM (inactive)	14.4 µM (inactive)	7.91 µM (inactive)	16.6 µM (inactive)	13.2 µM (inactive)	2.54 µM (inactive)	7.71 µM (inactive)	12.4 µM (inactive)	12.7 µM (inactive)	3.16 µM (inactive)	8.81 µM (inactive)	18.8 µM (inactive)	2.44 µM (inactive)	4.05 µM (inactive)	2.77 µM (inactive)	16.6 µM (inactive)	3.61 µM (inactive)
O=C(Nc1nc2ccccc2s1)c1cc([N+](=O)[O-])ccc1Cl	13.6 µM (inactive)	4.45 µM (inactive)	28.4 µM (inactive)	5.89 µM (inactive)	6.17 µM (inactive)	4.91 µM (inactive)	22.3 µM (inactive)	6.84 µM (inactive)	5.47 µM (inactive)	3.13 µM (inactive)	13.9 µM (inactive)	6.43 µM (inactive)	5 µM (inactive)	> 81.7 µM (inactive)	23 µM (inactive)	1.78 µM (inactive)	6.14 µM (inactive)	2.81 µM (inactive)	23.7 µM (inactive)	0.91 µM (active)
